Test results reported in ChEMBL document CHEMBL2034861, “Tyrosyl-DNA phosphodiesterase 1 inhibitor from an anamorphic fungus” (J Nat Prod, 2012).

Assays:
[1] = target: Tyrosyl-DNA phosphodiesterase 1 (Homo sapiens, UniProt Q9NUW8); experiment: Inhibition of human Tdp1 using 3'-phosphate-(4-methylumbelliferone)-thymidine as substrate after 180 mins by spectrophotometry
[2] = system: HeLa; experiment: Antiproliferative activity against human HeLa cells after 48 hrs by WST-8 assay; format: functional, cell-based
[3] = system: NCI-H2052; experiment: Antiproliferative activity against human NCI-H2052 cells after 48 hrs by WST-8 assay; format: functional, cell-based; details: NCI-H2052, 48 h
[4] = system: HT-29; experiment: Antiproliferative activity against human HT-29 cells after 48 hrs by WST-8 assay; format: functional, cell-based; details: HT-29, 48 h
[5] = Antiproliferative activity against human NAMALWA cells after 48 hrs by WST-8 assay; format: functional, cell-based; details: NAMALVA
[6] = system: HT-29; experiment: Antitumor activity against human HT-29 cells xenografted in nude mouse KSN assessed as reduction in tumor volume at 2 mg/kg, ip qd administered every other day from day 7 post-tumor injection for 19 days measured on day 21 relative to vehicle treated control; format: functional; details: route intraperitoneal
[7] = system: Mus musculus; experiment: Toxicity in nude mouse KSN assessed as weight loss at 2 mg/kg, ip qd administered every other day for 19 days measured on day 21 relative to vehicle treated control; format: organism-based; design: dose 2 mg/kg, route intraperitoneal; details: in vivo, 456 h
[8] = system: Mus musculus; experiment: Toxicity in nude mouse KSN assessed as adverse effects at 2 mg/kg, ip qd administered every other day for 19 days measured on day 21 relative to vehicle treated control; format: organism-based; design: dose 2 mg/kg, route intraperitoneal; details: in vivo, 456 h

Chain of Tyrosyl-DNA phosphodiesterase 1 (Q9NUW8 whole entry): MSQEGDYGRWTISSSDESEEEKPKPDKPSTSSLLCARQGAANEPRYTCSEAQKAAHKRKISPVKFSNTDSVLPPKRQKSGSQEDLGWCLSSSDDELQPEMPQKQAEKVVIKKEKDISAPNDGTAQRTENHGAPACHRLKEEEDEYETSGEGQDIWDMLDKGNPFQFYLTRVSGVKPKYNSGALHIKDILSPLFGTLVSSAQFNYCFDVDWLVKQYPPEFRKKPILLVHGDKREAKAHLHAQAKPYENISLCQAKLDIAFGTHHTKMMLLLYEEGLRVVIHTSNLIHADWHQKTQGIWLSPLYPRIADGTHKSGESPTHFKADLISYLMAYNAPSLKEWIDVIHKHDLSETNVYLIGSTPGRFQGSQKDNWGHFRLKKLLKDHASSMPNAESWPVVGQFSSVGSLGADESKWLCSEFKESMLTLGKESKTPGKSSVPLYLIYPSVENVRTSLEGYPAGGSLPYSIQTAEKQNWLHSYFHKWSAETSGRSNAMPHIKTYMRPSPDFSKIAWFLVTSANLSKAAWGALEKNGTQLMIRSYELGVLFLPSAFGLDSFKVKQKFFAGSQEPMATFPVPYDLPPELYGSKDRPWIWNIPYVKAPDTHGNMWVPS

IC50 [1]: 18 µM
IC50 [2]: 9.2 µM
IC50 [3]: 13 µM
IC50 [4]: 4 µM
SMILES: CCCCC(C)C1=CC(=O)C2=C(O[C@]3(C)CC[C@H]4O[C@@H]([C@@](C)(O)C(=O)O)CC[C@]4(C)[C@H]3C2)C1=O (stereo partly drawn)
IC50 [5]: 3.5 µM
T/C [6]: 0.51
Activity [7]: Non-toxic
Activity [8]: Non-toxic
